Data reported in PMC10518255, “A first-in-class pan-lysyl oxidase inhibitor impairs stromal remodeling and enhances gemcitabine response and survival in pancreatic cancer” (Nature Cancer, 2023).

Columns and labels:
[1] = target: T1, DAO (Homo sapiens, UniProt P19801); assay: IC50 determination against other human amine oxidases; format: biochemical
T1 sequence (P19801 20-751): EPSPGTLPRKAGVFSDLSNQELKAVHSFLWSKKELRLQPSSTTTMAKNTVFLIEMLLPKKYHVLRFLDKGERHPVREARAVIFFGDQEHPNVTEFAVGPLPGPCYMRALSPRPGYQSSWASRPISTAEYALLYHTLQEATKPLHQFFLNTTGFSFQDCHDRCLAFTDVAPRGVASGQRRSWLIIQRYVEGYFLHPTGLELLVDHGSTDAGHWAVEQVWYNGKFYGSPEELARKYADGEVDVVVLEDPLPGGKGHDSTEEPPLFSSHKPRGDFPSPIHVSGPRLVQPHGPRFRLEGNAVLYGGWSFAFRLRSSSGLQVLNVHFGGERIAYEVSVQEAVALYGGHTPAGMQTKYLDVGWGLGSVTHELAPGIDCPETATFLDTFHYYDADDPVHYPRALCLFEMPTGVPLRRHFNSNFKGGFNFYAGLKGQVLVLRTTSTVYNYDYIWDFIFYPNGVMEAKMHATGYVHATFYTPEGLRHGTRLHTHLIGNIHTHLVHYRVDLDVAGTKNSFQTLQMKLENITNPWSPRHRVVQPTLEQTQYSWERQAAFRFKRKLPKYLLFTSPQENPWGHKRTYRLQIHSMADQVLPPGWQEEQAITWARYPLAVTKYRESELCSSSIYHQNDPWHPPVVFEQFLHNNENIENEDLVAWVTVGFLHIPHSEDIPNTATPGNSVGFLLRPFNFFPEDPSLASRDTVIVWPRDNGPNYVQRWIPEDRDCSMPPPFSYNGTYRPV
Excerpt: (§1) Data are presented as mean ± s.d. […] Data presented as mean ± s.d. […] Source data TEXT PRINTED IN THE PICTURE: (b) PXS-5505: Recombinant DAO IC50 (nM): >30,000; Recombinant SSAO/VAP1 IC50 (nM): >30,000; Recombinant MAO-A IC50 (nM): >30,000; Recombinant MAO-B IC50 (nM): >30,000 | (f) PXS-5505: Fibroblast LOX IC50 (nM): 4,930; Recombinant LOXL-1 IC50 (nM): 1,590; Recombinant LOXL-2 IC50 (nM): 570; Recombinant LOXL-3 IC50 (nM): 1,800; Recombinant LOXL-4 IC50 (nM): 190

[2] = target: Recombinant MAO-B (Homo sapiens, UniProt P27338); assay: as above; format: biochemical
Sequence of Recombinant MAO-B (P27338 whole entry): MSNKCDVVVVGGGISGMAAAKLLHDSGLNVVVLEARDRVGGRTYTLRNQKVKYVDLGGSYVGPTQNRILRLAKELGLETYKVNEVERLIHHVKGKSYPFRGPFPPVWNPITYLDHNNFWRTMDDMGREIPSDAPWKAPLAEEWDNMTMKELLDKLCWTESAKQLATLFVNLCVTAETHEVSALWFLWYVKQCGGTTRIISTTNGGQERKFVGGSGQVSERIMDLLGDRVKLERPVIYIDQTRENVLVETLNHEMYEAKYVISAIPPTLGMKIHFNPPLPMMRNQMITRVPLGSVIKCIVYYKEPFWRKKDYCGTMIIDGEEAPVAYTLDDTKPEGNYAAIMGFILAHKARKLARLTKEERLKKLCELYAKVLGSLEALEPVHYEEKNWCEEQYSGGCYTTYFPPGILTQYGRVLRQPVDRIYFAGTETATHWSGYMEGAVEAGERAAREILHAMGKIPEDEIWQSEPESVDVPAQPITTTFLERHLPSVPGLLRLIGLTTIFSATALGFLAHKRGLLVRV
Excerpt: as §1

[3] = target: Recombinant SSAO/VAP1 (Homo sapiens, UniProt Q16853); assay: as above; format: biochemical
Sequence of Recombinant SSAO/VAP1 (Q16853 whole entry): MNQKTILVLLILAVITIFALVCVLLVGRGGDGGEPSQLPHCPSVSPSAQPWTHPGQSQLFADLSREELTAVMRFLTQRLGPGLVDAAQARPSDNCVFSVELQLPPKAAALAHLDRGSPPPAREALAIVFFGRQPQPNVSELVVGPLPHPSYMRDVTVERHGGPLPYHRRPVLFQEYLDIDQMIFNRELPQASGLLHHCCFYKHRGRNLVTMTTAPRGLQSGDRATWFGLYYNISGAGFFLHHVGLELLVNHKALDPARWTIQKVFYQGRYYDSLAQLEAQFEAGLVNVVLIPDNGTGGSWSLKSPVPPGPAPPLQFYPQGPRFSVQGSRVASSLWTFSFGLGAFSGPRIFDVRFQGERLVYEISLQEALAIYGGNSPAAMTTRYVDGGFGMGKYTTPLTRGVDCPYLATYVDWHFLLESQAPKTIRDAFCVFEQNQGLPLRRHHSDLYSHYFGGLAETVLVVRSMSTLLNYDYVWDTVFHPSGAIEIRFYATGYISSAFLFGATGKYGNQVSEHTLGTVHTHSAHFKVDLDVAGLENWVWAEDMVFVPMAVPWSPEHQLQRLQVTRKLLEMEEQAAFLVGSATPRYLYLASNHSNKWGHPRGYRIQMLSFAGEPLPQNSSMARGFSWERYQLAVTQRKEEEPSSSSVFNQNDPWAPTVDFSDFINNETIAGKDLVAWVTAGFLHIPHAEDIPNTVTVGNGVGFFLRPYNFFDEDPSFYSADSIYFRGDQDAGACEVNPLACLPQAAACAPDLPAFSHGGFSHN
Excerpt: as §1

[4] = target: Recombinant MAO-A (Homo sapiens, UniProt P21397); assay: as above; format: biochemical
Sequence of Recombinant MAO-A (P21397 whole entry): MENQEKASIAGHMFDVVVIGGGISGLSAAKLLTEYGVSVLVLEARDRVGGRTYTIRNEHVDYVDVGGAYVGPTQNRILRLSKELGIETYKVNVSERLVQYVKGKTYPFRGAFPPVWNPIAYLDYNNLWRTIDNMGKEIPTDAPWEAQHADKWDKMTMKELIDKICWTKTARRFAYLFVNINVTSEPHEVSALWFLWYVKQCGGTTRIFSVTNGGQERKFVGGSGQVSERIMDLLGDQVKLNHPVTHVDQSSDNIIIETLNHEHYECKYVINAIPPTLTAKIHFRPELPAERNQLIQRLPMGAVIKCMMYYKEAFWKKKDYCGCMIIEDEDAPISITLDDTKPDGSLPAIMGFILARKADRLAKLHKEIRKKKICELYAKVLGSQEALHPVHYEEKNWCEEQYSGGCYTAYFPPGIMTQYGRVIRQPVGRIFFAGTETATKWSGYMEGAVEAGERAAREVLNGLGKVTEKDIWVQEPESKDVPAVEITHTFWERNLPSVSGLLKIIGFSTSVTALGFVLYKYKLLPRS
Excerpt: as §1

[5] = system: human pancreatic cancer CAF remodeled organotypic matrices; assay: Matrix stiffness by unconfined compression testing of organotypic matrices; format: cell-based; conditions: human pancreatic cancer CAFs, PXS-5505 during remodeling
Method: Unconfined compression of 3D organotypic collagen matrices treated with or without PXS-5505 was performed on a TA Instruments Dynamic Hybrid Rheometer (DHR-3, TA Instruments). Remodeled collagen matrices were placed between upper and lower parallel plate geometries. A constant linear compressive rate of 5 µm s^−1 was applied to the samples and axial force (N) and gap (mm) were collected every 0.01 s. Data were processed and a stress–strain curve for each replicate was obtained. Bulk elastic modulus (kPa) was obtained as the gradient of the linear region of the stress–strain curve corrected for cross-sectional area of sample and normalized to control. Data points represent biological replicates. […]
Extended Data Fig. 4 PXS-5505 inhibits collagen cross-linking by PDAC CAFs in vitro resulting in decreased cancer cell invasion. a. […] Chemical structures of lysyl oxidase family catalyzed hydroxyallysine or allysine residues and the subsequent divalent and trivalent bonds that are formed that can be quantified by mass spectrometry. c. […] Relative fold expression of LOXL family members compared to LOX were determined by 2^–∆∆Ct approach. f. […] Comparison of measured area of matrices between control, PXS-5120 and PXS-5505 treatment groups (n = 3) over time. i. […] Representative images of invasion of KPC cancer cells into a contracted organotypic matrix as determined by H&E staining. […]

[6] = Rat pharmacokinetics, single dose orally (10 mg/kg) or intravenously (5 mg/kg)

## Cl.Cl.NC/C=C(\F)CS(=O)(=O)c1cccc2cccnc12.O [PXS-5505, (Z)-3-fluoro-4-(quinolin-8-ylsulfonyl)but-2-en-1-amine dihydrochloride monohydrate]
[1]
  IC50: > 30 µM
[2]
  IC50: > 30 µM
[3]
  IC50: > 30 µM
[4]
  IC50: > 30 µM
[5]
  stiffness (bulk modulus) of remodeled organotypic matrices: decrease in stiffness (bulk modulus)
[6]; 5 mg/kg iv, 0.03 hrs
  Plasma concentration: 10.145
[6]; 5 mg/kg iv, 0.17 hrs
  Plasma concentration: 4.593
[6]; 5 mg/kg iv, 0.5 hrs
  Plasma concentration: 2.135
[6]; 5 mg/kg iv, 1 hrs
  Plasma concentration: 0.7139
[6]; 5 mg/kg iv, 2 hrs
  Plasma concentration: 0.1589
[6]; 5 mg/kg iv, 3 hrs
  Plasma concentration: 0.055
[6]; 5 mg/kg iv, 5 hrs
  Plasma concentration: 0.008393
[6]; 10 mg/kg oral, 0.25 hrs
  Plasma concentration: 2.305
[6]; 10 mg/kg oral, 0.5 hrs
  Plasma concentration: 3.551
[6]; 10 mg/kg oral, 1 hrs
  Plasma concentration: 3.399
[6]; 10 mg/kg oral, 2 hrs
  Plasma concentration: 0.9
[6]; 10 mg/kg oral, 3 hrs
  Plasma concentration: 0.198
[6]; 10 mg/kg oral, 5 hrs
  Plasma concentration: 0.02554
[6]; 10 mg/kg oral, 8 hrs
  Plasma concentration: 0.0075
[6]; plasma, po, 10 mg/kg
  AUC(0-t): 1600 ng·h/mL
  Cmax: 1000 ng/mL
  Tmax: 48 min
[6]; plasma, po, 10 mg/kg, Bioavailability (F)
  bioavailability: 75%
[6]; plasma, po, 10 mg/kg, T1/2, rat
  half-life: 42 min
[6]; plasma, po, 10 mg/kg, bioavailability, oral administration, for rodents
  bioavailability: > 75%
[6]; plasma, po, 10 mg/kg, half-life, oral administration
  half-life: ~60 min
